In US20240108602A1, “TREATMENT OF MENTAL DISORDERS” (GH Research Ireland Limited, priority 2022, published 2024):

Tested on: patients with postpartum depression (PPD)
Assay: Clinical trial of inhaled 5-MeO-DMT (IDR) in patients with postpartum depression
Method: The single-arm, open-label clinical trial will involve 15 adult female patients with clinically diagnosed postpartum depression (PPD).
The second dose (12 mg) will only be administered if: • a. A peak experience (total score of ≥75) has not been achieved following the 6 mg dose, and • b. The 6 mg dose was safe and well-tolerated according to the investigator, • c. Any psychoactive effects (PsE) of the prior dose have subsided, and • d. Pre-dose vital parameters and forced expiratory volume in one second (FEV1) are in normal range, or if outside of the normal range, are not clinically significant according to the investigator. • 3. Similarly, a third dose (18 mg) will only be administered if: • a. A peak experience (total score of ≥75) has not been achieved following the 12 mg dose, and • b. The 12 mg dose was safe and well-tolerated according to the investigator, and • c. Any PsE of the prior dose have subsided, and • d. Pre-dose vital parameters and forced expiratory volume in one second (FEV1) are in normal range, or if outside of the normal range, are not clinically significant according to the investigator.
The patients will be assessed for a peak psychedelic experience (based on a patient-scored visual analogue scale, the PE scale), sedation, and other endpoints after dosing.
Follow-up visits are planned for Day 1, and Day 7 after the dosing day.
The following criteria must be met by all patients considered for clinical trial participation: • 1. Is female and in the age range between 18 and 45 years (inclusive) at screening. • 2. Has a body mass index (BMI) in the range of 18.5 and 35 kg/m^2 (inclusive) at screening. • 3. Meets the trial criteria for PPD as assessed by a trial psychiatrist or registered psychologist: • a. Diagnosis of Major Depressive Disorder without psychotic features, confirmed by the Mini-International Neuropsychiatric Interview (MINI), with peri-partum onset that began no earlier than gestation and no later than the first 4 weeks postpartum. • b. Has a Montgomery-Åsberg Depression Rating Scale (MADRS) total score of equal to or greater than 28 at screening and pre-dose on Day 0. • 6. […] Patients must have a negative pregnancy test at screening and on the pre-test day (Day−1). • 5. Is willing to delay start of other antidepressant or anxiety medication until after the end of the trial at Day 7 and agrees to keep any psychotherapy unchanged during the trial.

COc1ccc2[nH]cc(CCN(C)C)c2c1 [5-MeO-DMT]
ECG, safety laboratory analyses, CADSS (PPD patient 1): unremarkable | MADRS response (at least 50% improvement) and MADRS remission (total score 10 or less) (PPD patient 1): fulfilled standard criteria | reported adverse events (mild, resolved spontaneously) (PPD patient 1): cramping left abdominal pain and headache | MADRS Apparent sadness improvement (PPD patient 1, 2 hr): 5 | MADRS Apparent sadness score (PPD patient 1, 2 hr): 0 | MADRS Concentration Difficulties improvement (PPD patient 1, 2 hr): 0 | MADRS Concentration Difficulties score (PPD patient 1, 2 hr): 0 | MADRS Inability to Feel improvement (PPD patient 1, 2 hr): 3 | MADRS Inability to Feel score (PPD patient 1, 2 hr): 0 | MADRS Inner Tension improvement (PPD patient 1, 2 hr): 5 | MADRS Inner Tension score (PPD patient 1, 2 hr): 0 | MADRS Lassitude improvement (PPD patient 1, 2 hr): 3 | MADRS Lassitude score (PPD patient 1, 2 hr): 0 | MADRS Pessimistic Thoughts improvement (PPD patient 1, 2 hr): 4 | MADRS Pessimistic Thoughts score (PPD patient 1, 2 hr): 0 | MADRS Reduced Sleep improvement (PPD patient 1, 2 hr): 0 | MADRS Reduced Sleep score (PPD patient 1, 2 hr): 5 | MADRS Reduced appetite improvement (PPD patient 1, 2 hr): 0 | MADRS Reduced appetite score (PPD patient 1, 2 hr): 0 | MADRS Reported sadness improvement (PPD patient 1, 2 hr): 4 | MADRS Reported sadness score (PPD patient 1, 2 hr): 0 | MADRS Suicidal Thoughts improvement (PPD patient 1, 2 hr): 0 | MADRS Suicidal Thoughts score (PPD patient 1, 2 hr): 0 | Total MADRS improvement (PPD patient 1, 2 hr): 24 | Total MADRS score (PPD patient 1, 2 hr): 5 | BPRS Anxiety improvement (PPD patient 1, Day 1): 6 | BPRS Anxiety score (PPD patient 1, Day 1): 1 | BPRS Blunted affect improvement (PPD patient 1, Day 1): 0 | BPRS Blunted affect score (PPD patient 1, Day 1): 1 | BPRS Conceptual disorganization improvement (PPD patient 1, Day 1): 0 | BPRS Conceptual disorganization score (PPD patient 1, Day 1): 1 | BPRS Depressive Mood improvement (PPD patient 1, Day 1): 5 | BPRS Depressive Mood score (PPD patient 1, Day 1): 1 | BPRS Disorientation improvement (PPD patient 1, Day 1): 0 | BPRS Disorientation score (PPD patient 1, Day 1): 1 | BPRS Emotional withdrawal improvement (PPD patient 1, Day 1): 4 | BPRS Emotional withdrawal score (PPD patient 1, Day 1): 1 | BPRS Excitement improvement (PPD patient 1, Day 1): 1 | BPRS Excitement score (PPD patient 1, Day 1): 1 | BPRS Grandiosity improvement (PPD patient 1, Day 1): 0 | BPRS Grandiosity score (PPD patient 1, Day 1): 1 | BPRS Guilt feelings improvement (PPD patient 1, Day 1): 5 | BPRS Guilt feelings score (PPD patient 1, Day 1): 1 | BPRS Hallucinatory behaviour improvement (PPD patient 1, Day 1): 0 | BPRS Hallucinatory behaviour score (PPD patient 1, Day 1): 1 | BPRS Hostility improvement (PPD patient 1, Day 1): 0 | BPRS Hostility score (PPD patient 1, Day 1): 1 | BPRS Mannerisms and Posturing improvement (PPD patient 1, Day 1): 0 | BPRS Mannerisms and Posturing score (PPD patient 1, Day 1): 1 | BPRS Motor retardation improvement (PPD patient 1, Day 1): 0 | BPRS Motor retardation score (PPD patient 1, Day 1): 1 | BPRS Somatic Concern improvement (PPD patient 1, Day 1): 5 | BPRS Somatic Concern score (PPD patient 1, Day 1): 1 | BPRS Suspiciousness improvement (PPD patient 1, Day 1): 0 | BPRS Suspiciousness score (PPD patient 1, Day 1): 1 | BPRS Tension improvement (PPD patient 1, Day 1): 5 | BPRS Tension score (PPD patient 1, Day 1): 1 | BPRS Uncooperativeness improvement (PPD patient 1, Day 1): 0 | BPRS Uncooperativeness score (PPD patient 1, Day 1): 1 | BPRS Unusual Thought Content improvement (PPD patient 1, Day 1): 0 | BPRS Unusual Thought Content score (PPD patient 1, Day 1): 1 | MADRS Apparent sadness improvement (PPD patient 1, Day 1): 5 | MADRS Apparent sadness score (PPD patient 1, Day 1): 0 | MADRS Concentration Difficulties improvement (PPD patient 1, Day 1): 0 | MADRS Concentration Difficulties score (PPD patient 1, Day 1): 0 | MADRS Inability to Feel improvement (PPD patient 1, Day 1): 3 | MADRS Inability to Feel score (PPD patient 1, Day 1): 0 | MADRS Inner Tension improvement (PPD patient 1, Day 1): 5 | MADRS Inner Tension score (PPD patient 1, Day 1): 0 | MADRS Lassitude improvement (PPD patient 1, Day 1): 3 | MADRS Lassitude score (PPD patient 1, Day 1): 0 | MADRS Pessimistic Thoughts improvement (PPD patient 1, Day 1): 4 | MADRS Pessimistic Thoughts score (PPD patient 1, Day 1): 0 | MADRS Reduced Sleep improvement (PPD patient 1, Day 1): 5 | MADRS Reduced Sleep score (PPD patient 1, Day 1): 0 | MADRS Reduced appetite improvement (PPD patient 1, Day 1): 0 | MADRS Reduced appetite score (PPD patient 1, Day 1): 0 | MADRS Reported sadness improvement (PPD patient 1, Day 1): 4 | MADRS Reported sadness score (PPD patient 1, Day 1): 0 | MADRS Suicidal Thoughts improvement (PPD patient 1, Day 1): 0 | MADRS Suicidal Thoughts score (PPD patient 1, Day 1): 0 | Total MADRS improvement (PPD patient 1, Day 1): 29 | Total MADRS score (PPD patient 1, Day 1): 0 | BIMF TOTAL Δ vs Day 0 (PPD patient 1, Day 7): 13 | BIMF domain Adjustment % Improvement (PPD patient 1, Day 7): 20.00% | BIMF domain Adjustment score (PPD patient 1, Day 7): 6 | BIMF domain Adjustment Δ vs Day 0 (PPD patient 1, Day 7): 1 | BIMF domain Infant Care % Improvement (PPD patient 1, Day 7): 0.00% | BIMF domain Infant Care score (PPD patient 1, Day 7): 12 | BIMF domain Infant Care Δ vs Day 0 (PPD patient 1, Day 7): 0 | BIMF domain Management % Improvement (PPD patient 1, Day 7): 18% | BIMF domain Management score (PPD patient 1, Day 7): 33 | BIMF domain Management Δ vs Day 0 (PPD patient 1, Day 7): 5 | BIMF domain Mother-Child Interaction score (PPD patient 1, Day 7): 17 | BIMF domain Mother-Child Interaction Δ vs Day 0 (PPD patient 1, Day 7): 2 | BIMF domain Psychological Well-being score (PPD patient 1, Day 7): 53 | BIMF domain Psychological Well-being Δ vs Day 0 (PPD patient 1, Day 7): 9 | BIMF domain Self-Care % Improvement (PPD patient 1, Day 7): 44% | BIMF domain Self-Care score (PPD patient 1, Day 7): 13 | BIMF domain Self-Care Δ vs Day 0 (PPD patient 1, Day 7): 4 | BIMF domain Social Support score (PPD patient 1, Day 7): 18 | BIMF domain Social Support Δ vs Day 0 (PPD patient 1, Day 7): 1 | BIMF item 1 (I am a good mother) score (PPD patient 1, Day 7): 6 | BIMF item 1 Δ vs Day 0 (PPD patient 1, Day 7): 0 | BIMF item 2 (I feel rested) score (PPD patient 1, Day 7): 2 | BIMF item 2 Δ vs Day 0 (PPD patient 1, Day 7): 2 | BIMF item 3 (comfortable with the way I've chosen to feed my baby) score (PPD patient 1, Day 7): 6 | BIMF item 3 Δ vs Day 0 (PPD patient 1, Day 7): 0 | BIMF item 4 (My baby and I understand each other) score (PPD patient 1, Day 7): 5 | BIMF item 4 Δ vs Day 0 (PPD patient 1, Day 7): 0 | BIMF item 5 (able to relax and enjoy time with my baby) score (PPD patient 1, Day 7): 6 | BIMF item 5 Δ vs Day 0 (PPD patient 1, Day 7): 1 | BIMF item 6 (people I can trust to care for my baby when I need a break) score (PPD patient 1, Day 7): 6 | BIMF item 6 Δ vs Day 0 (PPD patient 1, Day 7): 0 | BIMF item 7 Δ vs Day 0 (PPD patient 1, Day 7): 0 | BIMF item 8 (getting enough adult interaction) score (PPD patient 1, Day 7): 6 | BIMF item 8 Δ vs Day 0 (PPD patient 1, Day 7): 0 | BIMF item 9 (getting enough encouragement from other people) score (PPD patient 1, Day 7): 6 | BIMF item 9 Δ vs Day 0 (PPD patient 1, Day 7): 1 | BIMF item 10 (I trust my own feelings (instincts)) score (PPD patient 1, Day 7): 6 | BIMF item 10 Δ vs Day 0 (PPD patient 1, Day 7): 1 | BIMF item 11 (a little time each week to do something for myself) score (PPD patient 1, Day 7): 6 | BIMF item 11 Δ vs Day 0 (PPD patient 1, Day 7): 1
